Experimental data published in patent publication US20040058974A1, “Treating fungal infections” (SCHERING CORPORATION, priority 2002, published 2004).
“Also recorded” adds a separate entry of the source. Like-named read-outs stand apart in the source and are kept apart here.

Experiments:
[1] = given with food, rising single dose; cited from earlier work
[2] = single daily dose; cited from earlier work
[3] = Posaconazole pharmacokinetics in bone marrow transplant (BMT) patients, 200 mg q6h for up to 25 days; assay type: in vivo, human
Method: The exposures in the fasted healthy volunteers were confirmed in a study of posaconazole pharmacokinetics in bone marrow transplant (BMT) patients.
Upon extrapolation of model parameters to multiple dosing, the population mean AUC(0-24 hr) value following oral administration of 200 mg of posaconazole four times a day, preferably q 6 hr was estimated to be 12.4 mcg·hr/mL, representing an average plasma concentration of 0.5 mcg/mL. These estimates, based on data from healthy fasted volunteers, are in close agreement with pharmacokinetic data obtained from a study of patients undergoing high-dose chemotherapy and a bone marrow transplant who were orally administered posaconazole 200 mg q6 h for up to 25 days. […] These studies combined with other data form the basis for posaconazole dosing regimens in the clinical efficacy trials for posaconazole.

[4] = system: Candida species (including albicans, glabrata, and tropicalis), as well as other opportunistic fungi; conditions: in vitro and in vivo studies; cited from earlier work
[5] = Open-label 3-way crossover clinical pharmacology study: plasma posaconazole pharmacokinetics in fasted healthy subjects (observed values and one-compartment model); assay type: in vivo, human; conditions: for bioavailability / Tmax / Cmax / Mean Cmin (SD) 48 hours after the initial dose / Increase in bioavailability vs regimen A / Change of estimated AUC(I) relative to regimen A: fasted; for bioavailability: model estimate (SE); for AUC(0-t): read-out: Steady-state AUC(0-24 hr); for Cmax: read-out: Mean Cmax (SD)
From the text: Men and women, 18 to 45 years of age were recruited for the clinical pharmacology study. Subjects were required to be of normal body weight (within 15% of ideal body weight) and generally in good health. Inclusion criteria included normal electrocardiogram (ECG) and laboratory test results, along with negative drug and pregnancy screens; nonlactating women of childbearing potential were required to use a barrier method of contraception during the study. Exclusion criteria included substance abuse or significant food or drug allergy, donation of blood or use of an investigational drug during the previous 90 days, use of any prescription or over-the-counter drugs other than acetaminophen in the previous 2 weeks, or use of alcohol during the previous 48 hours. Also excluded were subjects with a positive HIV, hepatitis B, or hepatitis C test, as were subjects with is a clinically significant systemic infection during the previous 4 weeks. Subjects who smoked ≧10 cigarettes daily were also excluded. This was an open-label, 3-way crossover study. Subjects who met the entry criteria were confined to the study center at least 12 hours prior to dosing and 48 hours after each dosing regimen. Subjects were discharged from the study site for a 1-week washout period between each arm of the study. Following an overnight fast, each subject received posaconazole as an oral suspension (40 mg/mL), using one of 3 dosing regimens: a single dose of 800 mg (regimen A); 2 doses of 400 mg given 12 hours apart (regimen B); or 4 doses of 200 mg given 6 hours apart (regimen C). Subjects were randomly assigned using a computer-generated random code to 1 of 6 treatment schedules (ABC, ACB, BAC, BCA, CAB, CBA). The oral posaconazole suspension was manufactured and supplied by Schering-Plough Research Institute, Kenilworth, N.J., USA. After dosing with an oral dosing syringe, the oral cavity was inspected to ensure that the subject had swallowed the suspension. Subjects remained fasted for 24 hours after the initial dose. During the first 14 hours, water was provided ad libitum and subjects received IV 1,400 mL D5W/0.5 normal saline at approximately 100 mL/hr as a calorie and fluid source. For regimen A, B, and C, blood samples were collected in heparin-containing tubes at baseline (0 hr) and at 2, 4, 5, 6, 8, 10, 12, 16, 24, and 48 hours after the first dose. For regimen B, blood samples were additionally collected at 14, 17, 18, 20, and 22 hours after the first dose. For regimen C, additional blood samples were collected at 11, 14, 17, 18, 20, 22, 23, 26, 28, and 36 hours after the first dose. Each sample was centrifuged within 15 minutes after collection for 10 minutes at 4° C. and 1,500 g. The resultant plasma was frozen (−20° C.) until assayed. Plasma posaconazole concentrations were quantified using a validated high-performance liquid chromatographic (HPLC) assay with a lower limit of quantitation (LOQ) of 5 ng/mL and a linear range of 5.0 to 5000 ng/mL. The observed values were the maximum plasma concentration (Cmax), time of maximum plasma concentration (Tmax), and the trough plasma concentration at 48 hours after the initial dose of posaconazole (Cmin). Based on previous experience in modeling concentration-time posaconazole data and goodness of fit criteria, a one-compartment oral model with a first-order rate of absorption and first-order rate of elimination was used. The intra-subject error was assumed to be additive, defined as, where Ci,j(t) and Gi,j(t) were the measured and predicted concentrations, respectively, for the j^th subject at time t under the i^th regimen. The predicted concentrations Gi,j(t) following treatments B and C were calculated using the principle of superpositioning, with a lag time equal to the dosing interval (B: 12 hours; C: 6 hours). The error term εi,j(t) was assumed to be N(0, σ^2 ε). Differences in exposure following the three dosage regimens were explored by allowing the bioavailability fraction (F) to differ between regimens. […]

[6] = Safety and tolerability in the 3-way crossover study (adverse events, vital signs, ECGs, laboratory tests); assay type: in vivo, human
Method: Physical examinations, vital signs, ECGs, and clinical laboratory tests were conducted at screening and at the end of the study (48 hours after the final dosing regimen). Treatment-emergent adverse events were recorded throughout the study. In addition, vital signs were evaluated prior to drug administration and at 24 and 48 hours after the first dose of each regimen.

[7] = 200 mg four times a day, model extrapolated to multiple dosing, healthy fasted volunteers

Average steady-state plasma concentration ([3]; 200 mg q6h for up to 25 days, high-dose chemotherapy and bone marrow transplant patients): 0.428 µg/mL
AUC ([3]; human, plasma, oral, 200 mg QID, BMT patients, read-out: AUC (exposure)): ~11000 ng·h/mL
AUC(0-t) ([3]; human, plasma, oral, 200 mg q6h for up to 25 days, high-dose chemotherapy and bone marrow transplant patients, read-out: AUC(0-24 hr) at steady state): 10600 ng·h/mL
Average posaconazole plasma concentration ([5]; 200 mg QID oral): greater than 500 ng/mL
Average plasma concentration [5, 7]: 0.5 µg/mL
Population mean AUC(0-24 hr) [5, 7]: 12400 ng·h/mL
Average posaconazole plasma concentration ([5]; 400 mg BID oral): greater than 300 ng/mL
Absorption constant, Ka, estimate ([5]; Table 1, one-compartment model): 0.197 h⁻¹
Elimination constant, Ke, estimate ([5]; Table 1, one-compartment model): 0.045 h⁻¹
bioavailability ([5]; both sexes, human, plasma, oral, 200 mg QID vs 800 mg QD, read-out: Bioavailability fraction F3, regimen C relative to regimen A): 320 ± 70%
Tmax ([5]; both sexes, human, plasma, oral, 200 mg, regimen C: 200 mg every 6 h, read-out: Mean Tmax (SD) after the initial dose): 24.2 h
Tmax ([5]; both sexes, human, plasma, oral, 200 mg, regimen C: 200 mg every 6 h, read-out: Tmax after the final dose): 6.2 h
bioavailability ([5]; both sexes, human, plasma, oral, 400 mg BID vs 800 mg QD, read-out: Bioavailability fraction F2, regimen B relative to regimen A): 198 ± 35%
Tmax ([5]; both sexes, human, plasma, oral, 400 mg, regimen B: 400 mg every 12 h, read-out: Mean Tmax (SD) after the initial dose): 16.6 h
Tmax ([5]; both sexes, human, plasma, oral, 400 mg, regimen B: 400 mg every 12 h, read-out: Tmax after the final dose): 4.6 h
Tmax ([5]; both sexes, human, plasma, oral, 800 mg, regimen A: 800 mg single dose, read-out: Mean Tmax (SD) after the initial dose): 7.8 h
Tmax ([5]; both sexes, human, plasma, oral, 800 mg, regimen A: 800 mg single dose, read-out: Tmax after the final dose): 7.8 h
half-life ([5]; both sexes, human, plasma, oral, from absorption rate constant, fasting conditions, read-out: Estimated absorption half-life (converted)): 3.5 h
half-life ([5]; both sexes, human, plasma, oral, from elimination rate constant, read-out: Estimated terminal elimination half-life (converted)): 15 h
AUC ([5]; both sexes, human, plasma, oral, 200 mg QID, fasted healthy subjects, read-out: AUC (exposure)): ~12000 ng·h/mL
Vd/F ([5]; both sexes, human, plasma, oral, one-compartment model, read-out: V/F1 (volume of distribution) estimate): 4580 L
AUC(0-t) ([5]; both sexes, human, plasma, oral, regimen A 800 mg QD, model extrapolated to multiple dosing): 3900 ng·h/mL
AUC(0-t) ([5]; both sexes, human, plasma, oral, regimen B 400 mg BID, model extrapolated to multiple dosing): 7700 ng·h/mL
Cmax ([5]; both sexes, human, plasma, oral, regimen B: 400 mg every 12 h (2 doses)): 225 ng/mL
AUC(0-t) ([5]; both sexes, human, plasma, oral, regimen C 200 mg QID, model extrapolated to multiple dosing): 12400 ng·h/mL
Cmax ([5]; both sexes, human, plasma, oral, regimen C: 200 mg every 6 h (4 doses)): 405 ng/mL
Cmax ([5]; both sexes, human, plasma, regimen A: 800 mg single oral dose): 137 ng/mL
Dose at which oral absorption is saturable ([5]; fasted subjects, suggested by concentration-time curves): 200 mg
Elimination rate constant ([5]; one-compartment model, all regimens): 0.045 h⁻¹
Absorption rate constant ([5]; one-compartment model, fasting conditions, all regimens): 0.197 h⁻¹
F1 (Regimen A) bioavailability fraction ([5]; reference, fixed equal to 1, 800 mg single dose): 1.0
Estimated steady-state average concentration ([5]; regimen A 800 mg QD, model extrapolated to multiple dosing): 162 ng/mL
Mean Cmin (SD) 48 hours after the initial dose ([5]; regimen A: 800 mg single dose): 50 (+/−26) ng/mL
Increase in bioavailability vs regimen A ([5]; regimen B 400 mg BID vs 800 mg single dose): 98%
Estimated steady-state average concentration ([5]; regimen B 400 mg BID, model extrapolated to multiple dosing): 320 ng/mL
Change of estimated AUC(I) relative to regimen A ([5]; regimen B 400 mg every 12 h): doubled
Mean Cmin (SD) 48 hours after the initial dose ([5]; regimen B: 400 mg every 12 h): 96 (+/−46) ng/mL
Increase in bioavailability vs regimen A ([5]; regimen C 200 mg QID vs 800 mg single dose): 220%
Estimated steady-state average concentration ([5]; regimen C 200 mg QID, model extrapolated to multiple dosing): 517 ng/mL
Change of estimated AUC(I) relative to regimen A ([5]; regimen C 200 mg every 6 h): tripled
Mean Cmin (SD) 48 hours after the initial dose ([5]; regimen C: 200 mg every 6 h): 189 (+/−135) ng/mL
Compound: CC[C@@H]([C@H](C)O)n1ncn(-c2ccc(N3CCN(c4ccc(OC[C@@H]5CO[C@@](Cn6cncn6)(c6ccc(F)cc6F)C5)cc4)CC3)cc2)c1=O [posaconazole]
Doses at which absorption saturated [1]: above 800 mg
Increase in oral bioavailability with a high fat meal compared to the fasted state [2]: approximately 4 fold
Antifungal activity [4]: good activity
Subjects reporting at least 1 adverse event ([6]; 18 subjects, all regimens): 33%
Changes in vital signs, physical examinations, laboratory values, ECGs ([6]; all regimens): no clinically significant changes; also recorded: unchanged relative to baseline
Intensity of adverse events ([6]; all regimens): mild in intensity
Subjects reporting chest pain ([6]; regimen C): 11%
Subjects reporting headache ([6]; regimens A and B): 11%
Safety and tolerability ([6]; total daily dose 800 mg, regardless of dosing regimen): safe and well tolerated
